In brackets after ≈: the same amount, converted by molar mass. Where a SMILES comes first, the peptide text is derived from it. Bridges are numbered along the chain shown (N, C = ends). [ ]: non-standard residue; d: D form. The star is where a group is joined. X1 = CC[C@H](C)CCCCC(=O)*; Dab = NCC[C@H](N)C(=O)O
What was measured:
Type in all cases: cell-based
[1] = tested on: Candida albicans SC 5314 biofilms; assay: Inhibition of early-phase biofilm (XTT); conditions: antimicrobial added after 4 hours of yeast growth, planktonic cells removed, A490, 80% decrease, triplicate, at least twice
Procedure: (§1) The effects of the pelgipeptins on C. albicans biofilms were analyzed according to the protocol described by Pierce et al.. Briefly, 2 × 10^6 cells/mL of C. albicans SC 5314 were inoculated on 96-well polystyrene microplates. The inhibition of biofilm formation was also evaluated by adding antimicrobials (lipopeptides, fluconazole, or amphotericin B) at the same time as the yeast inoculum. Furthermore, the inhibition of early-phase biofilms was assessed after 4 hours of yeast growth by removing the planktonic cells and adding the antimicrobials (lipopeptides or amphotericin B). For the investigation of the effects of peptides on mature biofilms, the Candida cells were allowed to grow for 24 h when planktonic cells were removed, and the antimicrobials were added to the culture and incubated for another 24 h at 37 °C.
(§2) The biofilm viability was analyzed by the metabolic assay on the basis of the reduction of 2,3-bis-(2-methoxy-4-nitro-5-sulfophenyl)-2H-tetrazolium-5-carboxanilide (XTT) and absorbance reading at 490 nm. […] The sessile minimal inhibitory concentrations (SMICs) were also determined at 80% (SMIC80) and 50% (SIMIC50) decrease in absorbance at 490 nm in comparison with the control biofilms growing in the absence of the drug, as previously described.

[2] = tested on: Candida albicans SC 5314 biofilms; assay: Inhibition of mature biofilms (XTT); conditions: biofilm grown 24 h, planktonic cells removed, antimicrobial for another 24 h at 37 °C, triplicate, at least twice
Procedure: as §1, §2

[3] = tested on: Candida albicans SC 5314 biofilms; assay: Inhibition of initial biofilm formation (XTT); conditions: antimicrobial added at same time as yeast inoculum (2 × 10^6 cells/mL), XTT reduction, A490, 80% decrease vs control biofilm, triplicate, at least twice
Procedure: as §1, §2

[4] = tested on: Paracoccidioides brasiliensis Pb18; assay: microbe, parasite or virus in culture
Procedure: (§3) The isolated pelgipeptin isoforms were tested against the reference clinical strains of Candida albicans SC 5314 (ATCC MYA-2876), Candida glabrata ATCC 90030, Cryptococcus neoformans H99 (ATCC 208821), and Paracoccidioides brasiliensis PB18, a Brazilian clinical isolate. All the isolates were obtained from the mycology collection of the University of Brasilia (Department of Cell Biology). Before each experiment, both Candida spp. strains were grown in Sabouraud's dextrose broth (Himedia) overnight at 30 °C/200 rpm. In addition, the C. neoformans cells were grown in the same conditions for 24 h. P. brasiliensis strains were also grown in GPY medium (2% glucose w/v, 1% peptone w/v, 0.5% yeast extract w/v, and 2% agar w/v), at 37 °C, for 5 days. The fungal cells were collected by centrifugation, washed thrice in phosphate buffered saline (PBS) (NaCl, 137 mM; KCl, 2.7 mM; Na2HPO4, 10 mM; KH2PO4, 2 mM), and inoculated in RPMI 1640 medium (Thermo-Fisher Scientific) supplemented with L-glutamine and buffered to pH 7.0 with 165 mM of 3-(N-morpholino) propanesulfonic acid.
(§4) The in vitro antifungal assays were performed according to the broth microdilution susceptibility test from the Clinical and Laboratory Standards Institute M27-A4 guidelines with modifications. Briefly, the twofold serial dilutions of each pelgipeptin were prepared in 96-well polystyrene microplates to a final volume of 50 µL. Fluconazole, an antifungal employed in the treatment of mycosis caused by Candida spp, Cryptococcus spp, and Paracoccidioides spp, was used as a control (Sigma-Aldrich). We also utilized polymyxin B (Sigma-Aldrich), another bacterial lipopeptide, in our assays due to some works that show its antifungal activity,[28]. The final concentrations of each lipopeptide and control ranged from 1 to 128 µg/mL, and the negative controls without peptide were used to assess fungal growth. Subsequently, 50 µL of the inoculum adjusted on RPMI-1640 medium was added to each well to a final concentration of 2 × 10^3 cells/mL for Candida spp. and 10^4 cells/mL for C. neoformans or P. brasiliensis strains. The microplates were incubated at 37 °C for 24, 48, or 72 h. In addition, the strains of C. neoformans were incubated with shaking at 200 rpm.
(§5) The MICs of the pelgipeptins against P. brasiliensis were determined using the microplate AlamarBlue Cell Viability Assay. This assay uses a resazurin-based solution to indicate cell viability, which was evaluated by fluorometric readings in a fluorescence plate reader with excitation at 550 nm and emission at 585 nm (SpectraMax® M plate reader). The experiments were performed in triplicates at least thrice on separate dates.

[5] = tested on: Candida glabrata ATCC 90030; assay: microbe, parasite or virus in culture; conditions: broth microdilution CLSI M27-A4 modified, RPMI 1640 pH 7.0, 2 × 10^3 cells/mL, 37 °C, complete inhibition of visible growth, triplicates, at least thrice
Procedure: as §3, §4, §5

Candida albicans SC5314 = assay: microbe, parasite or virus in culture; conditions: broth microdilution CLSI M27-A4 modified, RPMI 1640 pH 7.0, 2 × 10^3 cells/mL, 37 °C, complete inhibition of visible growth, triplicates, at least thrice
Procedure: as §3, §4, §5

[6] = tested on: Cryptococcus neoformans H99; assay: microbe, parasite or virus in culture; conditions: broth microdilution CLSI M27-A4 modified, RPMI 1640 pH 7.0, 10^4 cells/mL, 37 °C, shaking 200 rpm, lowest concentration completely inhibiting visible growth, triplicates, at least thrice
Procedure: as §3, §4, §5

With `C[C@@H]1[C@H](O)[C@@H](C)/C=C/C=C/C=C/C=C/C=C/C=C/C=C/[C@H](O[C@@H]2O[C@H](C)[C@@H](O)[C@H](N)[C@@H]2O)C[C@@H]2O[C@](O)(C[C@@H](O)C[C@@H](O)[C@H](O)CC[C@@H](O)C[C@@H](O)CC(=O)O[C@H]1C)C[C@H](O)[C@H]2C(=O)O` [Amphotericin B] as the molecule, how does the “Inhibition of early-phase biofilm SMIC80” value [1] read?
Its value is <0.5 µg/mL.

What about the “Inhibition of early-phase biofilm SMIC80” value ([1]; listed as amphotericin B) of the same molecule?
Its value is “lower than 0.5 µg/mL”.

And the “Inhibition of mature biofilms SMIC50” value ([2]; A490, 50% decrease)?
Its value is 0.5 µg/mL.

And the “Inhibition of mature biofilms SMIC80” value ([2]; A490, 80% decrease)?
The value was 4 µg/mL.

What about the “Inhibition of initial biofilm formation SMIC80” value [3] of the same molecule?
Its value is <0.5 µg/mL.

And the “Inhibition of initial biofilm formation SMIC80” value ([3]; listed as amphotericin B)?
The value was “lower than 0.5 µg/mL”.

For `OC(Cn1cncn1)(Cn1cncn1)c1ccc(F)cc1F` [Fluconazole], which MIC ([4]; Paracoccidioides brasiliensis, PB18, pH 7, read-out: MIC Paracoccidioides brasiliensis Pb18) is on record?
The MIC was 2 µg/mL (≈ 6.53 µM).

What about the MIC ([5]; Nakaseomyces glabratus, ATCC90030) of the same molecule?
The MIC was 32 µg/mL (≈ 104 µM).

And the MIC (Candida albicans SC5314; Candida albicans, SC5314)?
The MIC was 16 µg/mL (≈ 52.2 µM).

And the MIC ([6]; Cryptococcus neoformans, H99)?
The MIC was 2 µg/mL (≈ 6.53 µM).

What does the source list for `CC[C@H](C)CCCCC(=O)N[C@@H](CCN)C(=O)N[C@H](C(=O)N[C@@H](CCN)C(=O)N[C@H]1CCNC(=O)[C@H]([C@@H](C)O)NC(=O)[C@H](CCN)NC(=O)[C@H](CCN)NC(=O)[C@H](CC(C)C)NC(=O)[C@@H](Cc2ccccc2)NC(=O)[C@H](CCN)NC1=O)[C@@H](C)O` [Polymyxin B, polymyxin B] (X1-[Dab]T[Dab][Dab][Dab][dF]L[Dab][Dab]T; lactam 4-C (inferred); N-terminus assumed)?
MIC Paracoccidioides brasiliensis Pb18 ([4]; broth microdilution, RPMI 1640 pH 7.0 (MOPS), 10^4 cells/mL, 37 °C, AlamarBlue fluorescence (ex 550/em 585 nm), triplicates, at least thrice): > 1024 µg/mL; MIC Candida glabrata 90030 [5]: 512 µg/mL (≈ 425 µM); MIC Candida albicans SC5314 (Candida albicans SC5314): 256 µg/mL (≈ 213 µM); MIC Cryptococcus neoformans H99 [6]: 8 µg/mL (≈ 6.65 µM)

Reference: article PMC7921374, “In vitro antifungal activity of pelgipeptins against human pathogenic fungi and Candida albicans biofilms” (AIMS Microbiology, 2021)
